In PMC8365601, “Terphenyl-Based Small-Molecule Inhibitors of Programmed Cell Death-1/Programmed Death-Ligand 1 Protein–Protein Interaction” (Journal of Medicinal Chemistry, 2021):
Where two headings read alike, the source gives them in different places.

Target: PD-1/PD-L1 complex (Homo sapiens, UniProt Q9NZQ7)
Assay: HTRF assay of PD-1/PD-L1 complex dissociation (CisBio);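 note: human PD-L1 at 5 nM with human PD-1 at 50 nM, TR-FRET signal read after 2 h at room temperature, background removed via negative control and scaled to positive control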
Conditions: for remaining activity at 5 µM / remaining activity at 50 µM / remaining activity at 0.005 µM: 2 h; for IC50: HTRF; for % of undissociated complex: at 50 μM, Table S1; for HTRF % of the undissociated complex: determined at 50 μM inhibitor (footnote a), Table 2; for % of the undissociated complex: 5 μM
[1] = read-out: % of the undissociated complex in HTRF
[2] = read-out: % of undissociated complex at 5 μM
[3] = read-out: HTRF % of the undissociated complex at 5 μM
[4] = read-out: % of undissociated complex at 5 nM
[5] = read-out: HTRF % of the undissociated complex at 5 nM
[6] = Table 4, <1.00 = limit of quantification reached

Sequence of PD-1/PD-L1 complex (Q9NZQ7 19-238 limits assumed, one chain of several): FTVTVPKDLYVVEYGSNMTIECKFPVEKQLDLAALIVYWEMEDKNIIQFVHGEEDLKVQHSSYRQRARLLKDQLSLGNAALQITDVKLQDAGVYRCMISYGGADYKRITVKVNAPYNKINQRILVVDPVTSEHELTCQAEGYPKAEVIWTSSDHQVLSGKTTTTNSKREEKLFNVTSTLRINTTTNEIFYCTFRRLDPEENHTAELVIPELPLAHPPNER

Row | Structure (SMILES) | remaining activity at 5 µM [1] | remaining activity at 5 µM [2] | remaining activity at 5 µM [3] | remaining activity at 0.005 µM [4] | remaining activity at 0.005 µM [5] | other results
1 | Cc1c(-c2cccc(CO)c2)cccc1-c1ccc2c(c1)OCCO2 [4b, (3′-(Benzo-1,4-dioxan-6-yl)-2′-methyl-[1,1′-biphenyl]-3-yl)methanol] | 88% | 88% | 88% | – | – | –
2 | Cc1c(-c2ccc3c(c2)OCCO3)cccc1-c1ccccc1CO [4c, (3′-(Benzo-1,4-dioxan-6-yl)-2′-methyl-[1,1′-biphenyl]-2-yl)methanol] | 98% | 98% | 98% | – | – | –
3 | Nc1c(-c2ccc(CO)cc2)cccc1-c1ccc2c(c1)OCCO2 [4d, (2′-Amino-3′-(benzo-1,4-dioxan-6-yl)-[1,1′-biphenyl]-4-yl)methanol] | 73% | 73% | 73% | – | – | –
4 | OCc1ccc(-c2cccc(-c3ccc4c(c3)OCCO4)c2Cl)cc1 [4e, (3′-(Benzo-1,4-dioxan-6-yl)-2′-chloro-[1,1′-biphenyl]-4-yl)methanol] | 1% | 1% | 1% | – | – | IC50: ~500 nM; IC50 (Table 1): 510 ± 10 nM
5 | OCc1ccc(-c2cccc(-c3ccc4c(c3)OCCO4)c2Br)cc1 [4f, (3′-(Benzo-1,4-dioxan-6-yl)-2′-bromo-[1,1′-biphenyl]-4-yl)methanol] | 15% | 15% | 15% | – | – | IC50 (Table 1): 950 ± 20 nM
6 | OCc1ccc(-c2cccc(-c3ccc4c(c3)OCCO4)c2I)cc1 [4g, (3′-(Benzo-1,4-dioxan-6-yl)-2′-iodo-[1,1′-biphenyl]-4-yl)methanol] | 56% | 56% | 56% | – | – | –
7 | N#Cc1c(-c2ccc(CO)cc2)cccc1-c1ccc2c(c1)OCCO2 [4h] | 21% | 21% | 21% | – | – | IC50 (Table 1): 1170 ± 120 nM
8 | Cc1c(-c2ccc(COc3cccc(C(=O)O)c3)cc2)cccc1-c1ccc2c(c1)OCCO2 [5b, 3-((3′-(Benzo-1,4-dioxan-6-yl)-2′-methyl-[1,1′-biphenyl]-4-yl)methoxy)benzoic Acid] | – | – | – | – | – | remaining activity at 50 µM [1]: 71%; % of undissociated complex: 71%; HTRF % of the undissociated complex: 71^[a] %
9 | Cc1c(-c2ccc(COc3ccc(-c4cccnc4)c(C=O)c3)cc2)cccc1-c1ccc2c(c1)OCCO2 [5d, 5-((3′-(Benzo-1,4-dioxan-6-yl)-2′-methyl-[1,1′-biphenyl]-4-yl)methoxy)-2-(pyridin-3-yl)benzaldehyde] | – | – | – | – | – | remaining activity at 50 µM [1]: 65%; % of undissociated complex: 65%; HTRF % of the undissociated complex: 65^[a] %
10 | Cc1c(-c2ccc(COc3cc(C(=O)O)on3)cc2)cccc1-c1ccc2c(c1)OCCO2 [5f, 3-((3′-(Benzo-1,4-dioxan-6-yl)-2′-methyl-[1,1′-biphenyl]-4-yl)methoxy)isoxazole-5-carboxylic Acid] | 90% | 90% | 90% | – | – | –
11 | Cc1c(-c2ccc(Cn3cc(C(=O)O)nn3)cc2)cccc1-c1ccc2c(c1)OCCO2 [5h, 1-((3′-(Benzo-1,4-dioxan-6-yl)-2′-methyl-[1,1′-biphenyl]-4-yl)methyl)-1H-1,2,3-triazole-4-carboxylic Acid] | 100% | 100% | 100% | – | – | –
12 | Cc1c(-c2cccc(COc3cccc(C(=O)O)c3)c2)cccc1-c1ccc2c(c1)OCCO2 [5j, 3-((3′-(Benzo-1,4-dioxan-6-yl)-2′-methyl-[1,1′-biphenyl]-3-yl)methoxy)benzoic Acid] | 90% | 90% | 90% | – | – | –
13 | Cc1c(-c2cccc(COc3ccc(-c4cccnc4)c(C=O)c3)c2)cccc1-c1ccc2c(c1)OCCO2 [5l, 5-((3′-(Benzo-1,4-dioxan-6-yl)-2′-methyl-[1,1′-biphenyl]-3-yl)methoxy)-2-(yridine-3-yl)benzaldehyde] | – | – | – | – | – | remaining activity at 50 µM [1]: 95%; % of undissociated complex: 95%; HTRF % of the undissociated complex: 95^[a] %
14 | Cc1c(-c2cccc(COc3cc(C(=O)O)on3)c2)cccc1-c1ccc2c(c1)OCCO2 [5n, 3-((3′-(Benzo-1,4-dioxan-6-yl)-2′-methyl-[1,1′-biphenyl]-3-yl)methoxy)isoxazole-5-carboxylic Acid] | 77% | 77% | 77% | – | – | –
15 | Cc1c(-c2ccc3c(c2)OCCO3)cccc1-c1ccccc1COc1cccc(C(=O)O)c1 [5p, 3-((3′-(Benzo-1,4-dioxan-6-yl)-2′-methyl-[1,1′-biphenyl]-2-yl)methoxy)benzoic Acid] | – | – | – | – | – | remaining activity at 50 µM [1]: 87%; % of undissociated complex: 87%; HTRF % of the undissociated complex: 87^[a] %
16 | Cc1c(-c2ccc3c(c2)OCCO3)cccc1-c1ccccc1COc1cc(C(=O)O)on1 [5r, 3-((3′-(Benzo-1,4-dioxan-6-yl)-2′-methyl-[1,1′-biphenyl]-2-yl)methoxy)isoxazole-5-carboxylic Acid] | 100% | 100% | 100% | – | – | –
17 | Cc1c(-c2ccc(CN3CCOCC3)cc2)cccc1-c1ccc2c(c1)OCCO2 [6a, 4-((3′-(Benzo-1,4-dioxan-6-yl)-2′-methyl-[1,1′-biphenyl]-4-yl)methyl)morpholine] | 55% | 55% | 55% | – | – | –
18 | Cc1c(-c2ccc(CN3CCNCC3)cc2)cccc1-c1ccc2c(c1)OCCO2 [6b, 4-((3′-(Benzo-1,4-dioxan-6-yl)-2′-methyl-[1,1′-biphenyl]-4-yl)methyl)piperazine] | 5% | 5% | 5% | – | – | % of the undissociated complex: 5%
19 | Cc1c(-c2cccc(CN3CCNCC3)c2)cccc1-c1ccc2c(c1)OCCO2 [6c, 1-((3′-(Benzo-1,4-dioxan-6-yl)-2′-methyl-[1,1′-biphenyl]-3-yl)methyl)piperazine] | 56% | 56% | 56% | – | – | % of the undissociated complex: about 56%
20 | COc1cc(-c2cccc(-c3ccc4c(c3)OCCO4)c2C)ccc1CN1CCNCC1 [6d, 1-((3′-(Benzo-1,4-dioxan-6-yl)-3-methoxy-2′-methyl-[1,1′-biphenyl]-4-yl)methyl)piperazine] | – | – | – | 63% | 63% | –
21 | Cc1c(-c2ccc(CN3CCNCC3)c(OCc3cccc(C#N)c3)c2)cccc1-c1ccc2c(c1)OCCO2 [6e, 3-(((3′-(Benzo-1,4-dioxan-6-yl)-2′-methyl-4-(piperazin-1-ylmethyl)-[1,1′-biphenyl]-3-yl)oxy)methyl)benzonitrile] | – | – | – | 88% | 88% | –
22 | CCOc1cc(-c2cccc(-c3ccc4c(c3)OCCO4)c2Cl)ccc1CNCCNC(C)=O [7b, N-(2-(((3′-(Benzo-1,4-dioxan-6-yl)-2′-chloro-3-ethoxy-[1,1′-biphenyl]-4-yl)methyl)amino)ethyl)acetamide] | – | – | – | 5% | 5% | –
23 | CC(=O)NCCNCc1ccc(-c2cccc(-c3ccc4c(c3)OCCO4)c2Cl)cc1OC(C)C [7c, N-(2-(((3′-(Benzo-1,4-dioxan-6-yl)-2′-chloro-3-isopropoxy-[1,1′-biphenyl]-4-yl)methyl)amino)ethyl)acetamide] | – | – | – | 5% | 5% | –
24 | CC(=O)NCCNCc1ccc(-c2cccc(-c3ccc4c(c3)OCCO4)c2Cl)cc1OCCC(C)C [7d, N-(2-(((3′-(Benzo-1,4-dioxan-6-yl)-2′-chloro-3-isopentyloxy-[1,1′-biphenyl]-4-yl)methyl)amino)ethyl)acetamide] | – | – | – | 65% | 65% | –
25 | CC(=O)NCCNCc1ccc(-c2cccc(-c3ccc4c(c3)OCCO4)c2Cl)cc1OCC1CCC1 [7f, N-(2-(((3′-(Benzo-1,4-dioxan-6-yl)-2′-chloro-3-(cyclobutylmethoxy)-[1,1′-biphenyl]-4-yl)methyl)amino)ethyl)acetamide] | – | – | – | 53% | 53% | –
26 | CC(=O)NCCNCc1ccc(-c2cccc(-c3ccc4c(c3)OCCO4)c2Cl)cc1OCC1CCCC1 [7g, N-(2-(((3′-(Benzo-1,4-dioxan-6-yl)-2′-chloro-3-(cyclopentylmethoxy)-[1,1′-biphenyl]-4-yl)methyl)amino)ethyl)acetamide] | – | – | – | 76% | 76% | –
27 | CC(=O)NCCNCc1ccc(-c2cccc(-c3ccc4c(c3)OCCO4)c2Cl)cc1OCc1cccc(-c2cccc(C#N)c2)c1 [7h, N-(2-(((3′-(Benzo-1,4-dioxan-6-yl)-2′-chloro-3-((3′-cyano-[1,1′-biphenyl]-3-yl)methoxy)-[1,1′-biphenyl]-4-yl)methyl)amino)ethyl)acetamide] | – | – | – | 100% | 100% | –
28 | COc1cc(-c2cccc(-c3ccc4c(c3)OCCO4)c2Cl)ccc1CN1CCNCC1 [8a, 1-((3′-(Benzo-1,4-dioxan-6-yl)-2′-chloro-3-methoxy-[1,1′-biphenyl]-4-yl)methyl)piperazine] | – | – | – | 38% | 38% | IC50 [6]: 18.09 ± 0.09 nM
29 | COc1cc(-c2cccc(-c3ccc4c(c3)OCCO4)c2Cl)ccc1CN1CCN(C(N)=O)CC1 [8b, 4-((3′-(Benzo-1,4-dioxan-6-yl)-2′-chloro-3-methoxy-[1,1′-biphenyl]-4-yl)methyl)piperazine-1-carboxamide] | – | – | – | 28% | 28% | IC50 [6]: < 1 nM
30 | COc1cc(-c2cccc(-c3ccc4c(c3)OCCO4)c2Cl)ccc1CN1CCN(C(C)=O)CC1 [8c, 1-(4-((3′-(Benzo-1,4-dioxan-6-yl)-2′-chloro-3-methoxy-[1,1′-biphenyl]-4-yl)methyl)piperazin-1-yl)ethan-1-one] | – | – | – | 40% | 40% | IC50 [6]: < 1 nM
